Here are results for 6 compounds from the supplement of paper PMC11061612.

Assay [1] has as its system COR-L23 (Non-Small Cell Lung Carcinoma). In words: Bliss excess, mean over the matrix (fraction); higher = more synergy. The method in brief: (§1)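 After 24 hours at 37°C and 5% CO2 in 1536-well plates, cells in DMEM/F12 or RPMI plus 10% FBS received two-drug dose matrices for 72 hours. Viability came from CellTiter-Glo 2.0 luminescence and was scaled as inhibition, anchored at 0 by vehicle wells and at 1 by blank wells. Combination Emax is taken as the second-highest inhibition in the matrix, and Bliss excess as the observed combination effect less EA + EB − EA·EB, with EA and EB the single-agent effects.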

Assay [2] has as its system SW780 (Bladder Carcinoma). Described as above. The method in brief:
as §1

Assay [3] deals with SW1783 (Low Grade Glioma). The description is as above. The method in brief: as §1
For another assay, the system named is RH-1 (Ewing's Sarcoma). The description is as above. The essentials: as §1
Assay [4] has as its system DMS-273 (Small Cell Lung Carcinoma). The description is as above. The essentials:
as §1

In assay [5] the test system is HT-29 (Colorectal Carcinoma). The assay is described as above. The essentials: as §1
Assay [6] has as its system C3A (Hepatocellular Carcinoma). Described as above. The method in brief: as §1
Assay [7] relates to SW756 (Cervical Carcinoma). Described as above. The method in brief: as §1
The subject of assay [8] is HCC2157 (Breast Carcinoma). The assay is described as above. The essentials: as §1
The test system of assay [9] is U-266 (Plasma Cell Myeloma). The description is as above. The essentials: as §1
Another assay concerns NCI-H2595 (Mesothelioma). The description is as above. The essentials:
as §1

A further assay has as its system ES7 (Ewing's Sarcoma). In words: combination Emax (second highest fraction inhibited in the dose matrix, 72 h); higher = more inhibition; extreme values may be limits of the assay. The method in brief: as §1
The subject of assay [10] is 697 (B-Lymphoblastic Leukemia). Described as above. The essentials: as §1
Assay [11] has as its system JiyoyeP-2003 (Burkitt's Lymphoma). The description is as above. The essentials:
as §1

Assay [12] has as its system HPAC (Pancreatic Carcinoma). The assay is described as above. The essentials:
as §1

Assay [13] deals with DMS-273 (Small Cell Lung Carcinoma). The description is as above. The essentials: as §1
The test system of assay [14] is SUIT-2 (Pancreatic Carcinoma). The assay is described as above. The essentials: as §1
For assay [15], the system named is KM-H2 (Hodgkin's Lymphoma). The description is as above. The method in brief: as §1
Assay [16] deals with LU-99A (Non-Small Cell Lung Carcinoma). The assay is described as above. The essentials: as §1
Assay [17] relates to U-266 (Plasma Cell Myeloma). The description is as above. The essentials:
as §1
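For Bliss excess, mean over the matrix in this document: after 72 h of two-drug dosing.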

With `CC1(C)CCC(CN2CCN(c3ccc(C(=O)NS(=O)(=O)c4ccc(NCC5CCOCC5)c([N+](=O)[O-])c4)c(Oc4cnc5[nH]ccc5c4)c3)CC2)=C(c2ccc(Cl)cc2)C1` [Venetoclax] + COc1cc(Nc2ncc3c(n2)-c2ccc(Cl)cc2C(c2c(F)cccc2OC)=NC3)ccc1C(=O)O [Alisertib] (first compound max 1 µM, 7x7, partner max 10 µM), the Bliss excess in assay [1] is -0.0201; in assay [2] it was -0.0455; in [3] it was -0.0178; in the assay on RH-1 (Ewing's Sarcoma), -0.0065; in assay [4], 0.0086; in assay [5], 0.0016. The Bliss excess was -0.0617 in [6]; -0.0426 in assay [7]; 0.113 in [8]; 0.131 in assay [9]; -0.0543 with NCI-H2595 (Mesothelioma). Also, the “combination Emax” value in the assay on ES7 (Ewing's Sarcoma) came to 0.917; in assay [10], 1; in [11], 0.852; in assay [12] it was 0.688; in assay [13], 0.767; in assay [14] it was 0.106. Moreover, the “combination Emax” value was found to be 0.448 in assay [15], 0.44 in assay [16] and 0.751 in assay [17].

Take `CN(CCO)CC[C@H](CSc1ccccc1)Nc1ccc(S(=O)(=O)NC(=O)c2ccc(N3CCC([C@@H](O)c4ccccc4-c4ccc(Cl)cc4)CC3)cc2)cc1S(=O)(=O)C(F)(F)F` [AZD4320] + CCN(CCO)CCCOc1ccc2c(Nc3cc(CC(=O)Nc4cccc(F)c4)[nH]n3)ncnc2c1 [AZD2811] (first compound max 1 µM, 7x7, partner max 1 µM): the Bliss excess was -0.0343 in [1]; 0.028 in assay [2]; -0.0701 in assay [3]; -0.0551 in the assay with RH-1 (Ewing's Sarcoma); -0.0732 in assay [4]; -0.0074 in assay [5]. In addition, the Bliss excess in assay [6] was -0.0487; in assay [7] it was -0.0334; in assay [8] it was 0.0907; in assay [9] it was 0.113; with NCI-H2595 (Mesothelioma), -0.032. Also, the “combination Emax” value in the assay on ES7 (Ewing's Sarcoma) was 1; in [10], 1; in assay [11] it was 0.827; in assay [12], 0.844; in assay [13], 0.766; in [14], 0.089. The “combination Emax” value in [15] is 0.196; in [16], 0.701; in assay [17] it was 0.718.

Regarding `COc1nnc2ccc(N3CCC(c4ccc(OCCN5CCN(C)C(=O)[C@H]5C)cc4)CC3)nn12` [AZD5153] + Cc1c2c(nn1C)CSCc1cc(n(C)n1)CSc1cc(c3ccccc3c1)OCCCc1c(C(=O)O)n(C)c3c-2c(Cl)ccc13 [AZD5991] (first compound max 1 µM, 7x7, partner max 1 µM), the Bliss excess in [1] is -0.0296; in assay [2], -0.0187; in assay [3], -0.0024; in the assay on RH-1 (Ewing's Sarcoma), 0.0034; in assay [4], -0.1; in assay [5], -0.0227. Moreover, the Bliss excess in assay [6] is -0.0262; in [7], -0.0238; in assay [8] it was 0.0049; in [9] it was -0.106; in the assay on NCI-H2595 (Mesothelioma) it was 0.015. The “combination Emax” value with ES7 (Ewing's Sarcoma) was found to be 0.928; in assay [10], 1; in [11], 0.918; in [12] it was 0.628; in assay [13], 0.994; in [14] it was 0.462. For the same compound, the “combination Emax” value in assay [15] was determined as 0.451; in assay [16], 0.807; in [17], 0.899.

With `CN(C)CCCOc1ccc(-c2ccc3ncc4c(c3c2)n(C2CCOCC2)c(=O)n4C)cn1` [AZD0156] + C=CCn1c(=O)c2cnc(Nc3ccc(N4CCN(C)CC4)cc3)nc2n1-c1cccc(C(C)(C)O)n1 [AZD1775] (first compound max 1 µM, partner max 1 µM), the Bliss excess in [1] was 0.0047; in [2], -0.0311; in assay [3], -0.0624; with RH-1 (Ewing's Sarcoma), 0.0329; in assay [4], -0.0142; in assay [5], -0.0411. Moreover, the Bliss excess in [6] was -0.0866; in assay [7], -0.0386; in assay [8], -0.0233; in [9], 0.0168; in the assay with NCI-H2595 (Mesothelioma), -0.062. The “combination Emax” value is 0.542 with ES7 (Ewing's Sarcoma); 1 in [10]; 0.937 in assay [11]; 0.67 in [12]; 0.589 in assay [13]; 0.619 in [14]. Also, the “combination Emax” value worked out at 0.953 in assay [15], 0.677 in [16] and 0.737 in [17].

In the case of `COc1cccc(OCCCN)c1-c1cc(Nc2cnc(C#N)cn2)n[nH]1` [Prexasertib] + C=CCn1c(=O)c2cnc(Nc3ccc(N4CCN(C)CC4)cc3)nc2n1-c1cccc(C(C)(C)O)n1 [AZD1775] (first compound max 1 µM, partner max 1 µM), the Bliss excess was 0.047 in [1]; 0.0349 in assay [2]; -0.0053 in assay [3]; 0.0653 in the assay with RH-1 (Ewing's Sarcoma); 0.0795 in assay [4]; -0.0247 in assay [5]. Besides, the Bliss excess was 0.0463 in assay [6]; 0.0163 in assay [7]; 0.0668 in [8]; -0.0454 in [9]; 0.0383 in the assay with NCI-H2595 (Mesothelioma). Also, the “combination Emax” value in the assay with ES7 (Ewing's Sarcoma) is 0.966; in assay [10] it was 1; in assay [11], 0.984; in assay [12], 0.792; in [13], 0.984; in [14] it was 0.707. In addition, the “combination Emax” value in assay [15] came to 0.962; in assay [16] it was 0.806; in [17] it was 0.77.

Take `CS(=O)(=O)CCNCc1ccc(-c2ccc3ncnc(Nc4ccc(OCc5cccc(F)c5)c(Cl)c4)c3c2)o1` [Lapatinib] + C[C@@H](Oc1cc(-c2cnn(C3CCNCC3)c2)cnc1N)c1c(Cl)ccc(F)c1Cl [Crizotinib] (first compound max 10 µM, 7x7, partner max 10 µM): the Bliss excess in [1] was -0.0296; in assay [2], -0.0364; in assay [3] it was -0.0306; in the assay with RH-1 (Ewing's Sarcoma), -0.0553; in assay [4], 0.0146; in [5], -0.0475. Moreover, the Bliss excess in assay [6] was -0.0963; in assay [7], -0.0138; in assay [8], -0.0482; in assay [9], -0.0574; with NCI-H2595 (Mesothelioma) it was -0.0198. The “combination Emax” value with ES7 (Ewing's Sarcoma) stood at 0.927; in assay [10] it was 0.996; in assay [11], 0.863; in [12] it was 0.929; in [13], 0.954; in assay [14] it was 0.657. The “combination Emax” value in [15] is 0.931; in assay [16], 0.603; in assay [17] it was 0.495.
